Laboratory results taken from ChEMBL document CHEMBL4033666, “Synthesis and mechanistic evaluation of novel N'-benzylidene-carbohydrazide-1H-pyrazolo[3,4-b]pyridine derivatives as non-anionic antiplatelet agents” (Eur J Med Chem, 2017).
The source made the active and inactive calls. Unless noted, no cut-off for these calls is given here.

Tests used:
[1] = biological target: T1, Prostaglandin G/H synthase 1 (Ovis aries, UniProt P05979); assay: Inhibition of ovine COX-1 assessed as reduction in PGH2 production up to 100 uM using arachidonic acid as substrate preincubated for 5 mins followed by substrate and hematin addition measured after 2 mins by ELISA relative to control; conditions: sheep
T1 sequence (P05979 whole entry): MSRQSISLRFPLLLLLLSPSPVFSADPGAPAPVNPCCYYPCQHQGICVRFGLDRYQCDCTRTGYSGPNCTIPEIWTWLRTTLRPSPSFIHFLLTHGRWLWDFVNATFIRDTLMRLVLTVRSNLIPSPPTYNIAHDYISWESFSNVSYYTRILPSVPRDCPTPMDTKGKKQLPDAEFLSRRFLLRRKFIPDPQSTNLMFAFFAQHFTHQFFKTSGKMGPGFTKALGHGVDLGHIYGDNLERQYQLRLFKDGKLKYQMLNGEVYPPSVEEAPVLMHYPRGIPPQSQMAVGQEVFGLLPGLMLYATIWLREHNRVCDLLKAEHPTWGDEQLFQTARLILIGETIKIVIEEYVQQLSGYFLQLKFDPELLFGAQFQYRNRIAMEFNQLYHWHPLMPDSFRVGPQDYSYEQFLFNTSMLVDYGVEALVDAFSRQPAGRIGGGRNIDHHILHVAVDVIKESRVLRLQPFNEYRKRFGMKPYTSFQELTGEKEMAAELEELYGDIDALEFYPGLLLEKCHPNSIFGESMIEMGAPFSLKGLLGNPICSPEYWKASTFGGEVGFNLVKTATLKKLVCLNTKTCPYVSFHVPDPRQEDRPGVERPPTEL

[2] = Binding affinity to DOPC/DOPS large unilamellar vesicles assessed as blue shift at 100 uM by DAPI staining based fluorescence assay
Platelet [3] = assay: Antiplatelet activity in human platelet rich plasma assessed as inhibition of ADP-induced platelet aggregation at 100 uM preincubated for 2 mins followed by ADP addition by turbidimetric method relative to control; assay type: cell-based
Plasma [4] = assay: Change in prothrombin time in human plasma at 100 uM incubated for 15 mins at room temperature and 2 mins at 37 degC in presence of calcium thromboplastin; assay type: ADME, cell-free
Platelet [5] = assay: Antiplatelet activity in human platelet rich plasma assessed as inhibition of collagen-induced platelet aggregation preincubated for 2 mins followed by collagen addition by turbidimetric method; assay type: cell-based
Platelet [6] = assay: Drug uptake in human platelet assessed as co-localization with CD31 at 100 uM by confocal microscopy analysis; assay type: ADME, cell-based
[7] = biological target: T2, Prostaglandin G/H synthase 2 (Homo sapiens, UniProt P35354); assay: Inhibition of recombinant human COX-2 assessed as reduction in PGH2 production up to 100 uM using arachidonic acid as substrate preincubated for 5 mins followed by substrate and hematin addition measured after 2 mins by ELISA relative to control
T2 sequence (P35354 whole entry): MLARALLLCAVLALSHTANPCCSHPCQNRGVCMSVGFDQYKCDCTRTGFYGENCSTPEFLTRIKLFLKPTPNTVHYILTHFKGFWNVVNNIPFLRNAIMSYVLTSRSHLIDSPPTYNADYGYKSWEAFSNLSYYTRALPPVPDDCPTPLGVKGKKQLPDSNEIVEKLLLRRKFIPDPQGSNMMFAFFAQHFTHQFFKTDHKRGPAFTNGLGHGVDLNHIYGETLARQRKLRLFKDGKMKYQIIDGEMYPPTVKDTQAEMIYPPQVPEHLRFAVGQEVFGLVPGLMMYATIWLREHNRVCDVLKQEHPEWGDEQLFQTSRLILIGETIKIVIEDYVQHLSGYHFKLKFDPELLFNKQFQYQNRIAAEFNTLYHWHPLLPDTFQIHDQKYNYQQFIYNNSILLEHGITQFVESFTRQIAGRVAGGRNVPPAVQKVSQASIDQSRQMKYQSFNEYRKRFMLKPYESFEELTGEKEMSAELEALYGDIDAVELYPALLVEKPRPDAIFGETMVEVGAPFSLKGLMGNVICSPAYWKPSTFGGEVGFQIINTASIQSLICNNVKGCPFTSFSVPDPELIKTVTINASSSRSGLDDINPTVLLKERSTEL

Platelet [8] = assay: Drug uptake in human platelet assessed as co-localization with CD31 at 100 uM by epifluorescence assay; assay type: ADME, cell-based
Platelet [9] = assay: Potency index, ratio of aspirin IC50 to test compound IC50 for inhibition of arachidonic acid-induced platelet aggregation in human platelet rich plasma; assay type: functional
[10] = Hemolytic activity against human erythrocytes after 3 hrs relative to control; assay type: ADME, cell-based, Erythrocyte; conditions: read-out: Activity
Platelet [11] = assay: Antiplatelet activity in human platelet rich plasma assessed as inhibition of ADP-induced platelet aggregation preincubated for 2 mins followed by ADP addition by turbidimetric method; assay type: cell-based
Blood = assay: Reduction of clot retraction in human whole blood after 2 hrs; assay type: ADME, tissue-based
[12] = biological target: T3, Thromboxane-A synthase (Homo sapiens) (UniProt P24557); assay: Inhibition of TXS in human platelet rich plasma assessed as decrease in TXB2 production at 100 uM using arachidonic acid after 5 mins by ELISA
T3 sequence (whole entry): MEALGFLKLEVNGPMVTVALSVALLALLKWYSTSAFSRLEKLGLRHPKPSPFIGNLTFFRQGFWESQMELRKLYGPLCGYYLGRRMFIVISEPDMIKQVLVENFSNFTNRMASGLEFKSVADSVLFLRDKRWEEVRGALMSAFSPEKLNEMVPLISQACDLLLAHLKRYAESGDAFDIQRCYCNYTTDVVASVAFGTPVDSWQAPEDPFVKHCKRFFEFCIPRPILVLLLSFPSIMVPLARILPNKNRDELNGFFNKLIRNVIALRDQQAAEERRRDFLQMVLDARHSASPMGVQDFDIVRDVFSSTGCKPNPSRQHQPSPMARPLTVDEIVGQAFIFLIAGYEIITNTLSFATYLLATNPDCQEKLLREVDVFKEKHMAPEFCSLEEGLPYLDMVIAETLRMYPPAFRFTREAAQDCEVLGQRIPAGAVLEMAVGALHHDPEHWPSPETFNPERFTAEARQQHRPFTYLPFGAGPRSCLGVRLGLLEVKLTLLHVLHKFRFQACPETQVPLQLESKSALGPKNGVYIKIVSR

Platelet [13] = assay: Antiplatelet activity in human platelet rich plasma assessed as inhibition of epinephrine-induced platelet aggregation preincubated for 2 mins followed by epinephrine addition by turbidimetric method; assay type: cell-based
Platelet [14] = assay: Potency index, ratio of ozagrel IC50 to test compound IC50 for inhibition of arachidonic acid-induced platelet aggregation in human platelet rich plasma; assay type: functional
[15] = Selectivity ratio of IC50 for recombinant human CYP3A4 to IC50 for arachidonic acid-induced platelet aggregation in human platelet rich plasma
Cytochrome P450 3A4 = Cytochrome P450 3A4 (Homo sapiens, UniProt P08684); assay: Inhibition of recombinant human CYP3A4 expressed in baculosomes using BOMR as substrate preincubated for 10 mins followed by substrate/NADP+ addition measured for 1 hr; assay type: ADME
Platelet [16] = assay: Antiplatelet activity in human platelet rich plasma assessed as inhibition of collagen-induced platelet aggregation at 100 uM preincubated for 2 mins followed by collagen addition by turbidimetric method relative to control; assay type: cell-based
Plasma [17] = assay: Change in activated partial thromboplastin time in human plasma at 100 uM incubated for 15 mins at room temperature and 2 mins at 37 degC in presence of CaCl2; assay type: ADME, cell-free
Platelet [18] = assay: Antiplatelet activity in human platelet rich plasma assessed as inhibition of epinephrine-induced platelet aggregation at 100 uM preincubated for 2 mins followed by epinephrine addition by turbidimetric method relative to control; assay type: cell-based
Platelet [19] = assay: Antiplatelet activity in human platelet rich plasma assessed as inhibition of arachidonic acid-induced platelet aggregation at 100 uM preincubated for 2 mins followed by arachidonic acid addition by turbidimetric method relative to control; assay type: functional
Platelet [20] = assay: Antiplatelet activity in human platelet rich plasma assessed as inhibition of arachidonic acid-induced platelet aggregation preincubated for 2 mins followed by arachidonic acid addition by turbidimetric method relative to control; assay type: functional, cell-based
Platelet [21] = assay: Antiplatelet activity in human platelet rich plasma assessed as inhibition of […]-induced platelet aggregation at 100 uM preincubated for 2 mins followed by […] addition by turbidimetric method; assay type: functional, cell-based
[22] = biological target: Prostaglandin G/H synthase 1 (Homo sapiens, UniProt P23219); assay: Inhibition of COX1 in human platelet rich plasma assessed as decrease in PGE2 production at 100 uM using arachidonic acid as substrate after 5 mins by ELISA
[23] = biological target: T1, Prostaglandin G/H synthase 1; assay: Inhibition of ovine COX-1 assessed as reduction in PGH2 production using arachidonic acid as substrate preincubated for 5 mins followed by substrate and hematin addition measured after 2 mins by ELISA relative to control; conditions: sheep
[24] = biological target: T2, Prostaglandin G/H synthase 2; assay: Inhibition of recombinant human COX-2 assessed as reduction in PGH2 production at 100 uM using arachidonic acid as substrate preincubated for 5 mins followed by substrate and hematin addition measured after 2 mins by ELISA relative to control
[25] = biological target: T1, Prostaglandin G/H synthase 1; assay: Inhibition of ovine COX-1 assessed as reduction in PGH2 production at 100 uM using arachidonic acid as substrate preincubated for 5 mins followed by substrate and hematin addition measured after 2 mins by ELISA relative to control; conditions: sheep

Sequence of Cytochrome P450 3A4 (P08684 whole entry): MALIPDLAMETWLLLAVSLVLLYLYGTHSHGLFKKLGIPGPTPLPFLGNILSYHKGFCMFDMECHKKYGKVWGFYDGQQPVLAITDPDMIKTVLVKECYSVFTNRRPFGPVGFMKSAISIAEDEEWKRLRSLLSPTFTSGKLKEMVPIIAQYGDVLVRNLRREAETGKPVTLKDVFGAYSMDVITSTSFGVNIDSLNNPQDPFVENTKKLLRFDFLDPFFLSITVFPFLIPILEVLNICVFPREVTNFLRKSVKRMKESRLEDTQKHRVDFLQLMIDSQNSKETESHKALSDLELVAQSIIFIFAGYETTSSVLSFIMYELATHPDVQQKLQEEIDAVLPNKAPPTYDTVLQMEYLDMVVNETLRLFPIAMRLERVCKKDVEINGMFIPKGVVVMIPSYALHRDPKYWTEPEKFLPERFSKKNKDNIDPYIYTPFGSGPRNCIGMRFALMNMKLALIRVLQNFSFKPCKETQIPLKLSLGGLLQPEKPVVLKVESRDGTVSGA
Sequence of Prostaglandin G/H synthase 1 (Homo sapiens, UniProt P23219) (P23219 whole entry): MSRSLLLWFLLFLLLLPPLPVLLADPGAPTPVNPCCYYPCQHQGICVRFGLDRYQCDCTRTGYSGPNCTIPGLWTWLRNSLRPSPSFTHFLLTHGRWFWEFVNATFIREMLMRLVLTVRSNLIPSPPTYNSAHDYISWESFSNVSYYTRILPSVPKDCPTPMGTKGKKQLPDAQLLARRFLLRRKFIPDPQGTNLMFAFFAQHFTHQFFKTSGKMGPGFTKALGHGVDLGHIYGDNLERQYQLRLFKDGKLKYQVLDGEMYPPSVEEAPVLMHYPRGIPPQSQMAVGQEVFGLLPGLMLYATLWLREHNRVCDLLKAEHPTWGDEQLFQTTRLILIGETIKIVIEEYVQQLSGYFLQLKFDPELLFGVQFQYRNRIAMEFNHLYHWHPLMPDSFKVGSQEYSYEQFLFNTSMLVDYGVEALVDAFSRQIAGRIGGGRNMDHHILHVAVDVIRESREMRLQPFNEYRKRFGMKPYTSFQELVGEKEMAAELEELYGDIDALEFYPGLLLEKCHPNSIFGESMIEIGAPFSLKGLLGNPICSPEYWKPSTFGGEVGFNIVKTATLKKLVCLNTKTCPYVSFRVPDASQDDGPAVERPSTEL

| Structure (SMILES) | inhibition (INH) [1] | Activity [2] | inhibition at 100 µM (Platelet [3]) | Activity (Plasma [4]) | IC50 (Platelet [5]) | Drug uptake (Platelet [6]) | inhibition (INH) [7] | Drug uptake (Platelet [8]) | Ratio IC50 (Platelet [9]) | hemolysis at 3 h [10] | IC50 (Platelet [11]) | Activity (Blood) | inhibition [12] | IC50 (Platelet [13]) | Ratio IC50 (Platelet [14]) | inhibition at 100 µM (Platelet [16]) | Activity (Plasma [17]) | inhibition at 100 µM (Platelet [18]) | inhibition at 100 µM (Platelet [19]) | IC50 (Platelet [20]) | also measured |
| --- | --- | --- | --- | --- | --- | --- | --- | --- | --- | --- | --- | --- | --- | --- | --- | --- | --- | --- | --- | --- | --- |
| Cc1cc(C(=O)N/N=C/c2ccc(Br)cc2)c2c(C)nn(-c3ccccc3)c2n1 | Not Active | Active | 9.4% | Non-Toxic | > 100 µM | Active | Not Active | Active | <=10 | 5% | > 100 µM | Non-Toxic | Active | > 100 µM | <=10 | 17% | Non-Toxic | 11.8% | 94.8% | 3.67 to 10.2 µM | Ratio IC50 [15]: 20 to 30; IC50 (Cytochrome P450 3A4): 138 µM; inhibition (Platelet [21]): inactive; inhibition (INH) [22]: Not Active |
| COc1ccc2c(c1)c(CC(=O)O)c(C)n2C(=O)c1ccc(Cl)cc1 [INDOMETHACIN] | – | – | – | – | – | – | – | – | – | – | – | – | – | – | – | – | – | – | – | – | inhibition (INH) [23]: < 20% |
| Cc1cc(C(=O)N/N=C/c2ccc(O)cc2)c2c(C)nn(-c3ccccc3)c2n1 | Not Active | Active | 3.22% | Non-Toxic | > 100 µM | Active | Not Active | Active | <=10 | 0% | > 100 µM | Non-Toxic | Active | > 100 µM | <=10 | 64.6% | Non-Toxic | 3.3% | 96.8% | 3.67 to 10.2 µM | inhibition (INH) [24]: Active; inhibition (INH) [25]: Active; inhibition (INH) (Cytochrome P450 3A4; human, recombinant enzyme, 1 h): Dose-dependent effect; inhibition (Platelet [21]): inactive; inhibition (INH) [22]: Not Active |
| Cc1cc(C(=O)N/N=C/c2ccc(Cl)cc2)c2c(C)nn(-c3ccccc3)c2n1 | Not Active | Active | 3.4% | Non-Toxic | > 100 µM | Active | Not Active | Active | <=10 | 10% | > 100 µM | Non-Toxic | Active | > 100 µM | <=10 | 35.3% | Non-Toxic | 1.1% | 83.8% | 3.67 to 10.2 µM | Ratio IC50 [15]: 20 to 30; IC50 (Cytochrome P450 3A4): 94.6 µM; inhibition (Platelet [21]): inactive; inhibition (INH) [22]: Active |
